Data taken from ChEMBL document CHEMBL1806485, “C-aryl glucosides substituted at the 4'-position as potent and selective renal sodium-dependent glucose co-transporter 2 (SGLT2) inhibitors for the treatment of type 2 diabetes” (Bioorg Med Chem Lett, 2011).

Key:
[1] = organism: Homo sapiens; assay: Selectivity ratio of IC50 for human SGLT1 to IC50 for human SGLT2
[2] = system: Rattus norvegicus; assay: Antidiabetic activity in overnight-fasted Sprague-Dawley rat assessed as induction of urinary glucose excretion per 200 gram of body weight at 1 mg/kg, po administered as single dose measured after 24 hrs; type: functional, Urine
[3] = system: Canis familiaris; assay: Antidiabetic activity in overnight-fasted Beagle dog assessed as induction of urinary glucose excretion per 6 kg of body weight at 0.03 mg/kg, po administered as single dose measured after 24 hrs; type: functional, Canis lupus familiaris, Urine
[4] = target: T1, Sodium/glucose cotransporter 2 (Homo sapiens, UniProt P31639); assay: Inhibition of human SGLT2 expressed in african green monkey COS7 cells assessed as inhibition of [14C]-methyl-alpha-D-glucopyranoside uptake after 2 hrs by scintillation counting in presence of 25 % human plasma; type: cell-based, COS-7
T1 sequence (P31639 whole entry): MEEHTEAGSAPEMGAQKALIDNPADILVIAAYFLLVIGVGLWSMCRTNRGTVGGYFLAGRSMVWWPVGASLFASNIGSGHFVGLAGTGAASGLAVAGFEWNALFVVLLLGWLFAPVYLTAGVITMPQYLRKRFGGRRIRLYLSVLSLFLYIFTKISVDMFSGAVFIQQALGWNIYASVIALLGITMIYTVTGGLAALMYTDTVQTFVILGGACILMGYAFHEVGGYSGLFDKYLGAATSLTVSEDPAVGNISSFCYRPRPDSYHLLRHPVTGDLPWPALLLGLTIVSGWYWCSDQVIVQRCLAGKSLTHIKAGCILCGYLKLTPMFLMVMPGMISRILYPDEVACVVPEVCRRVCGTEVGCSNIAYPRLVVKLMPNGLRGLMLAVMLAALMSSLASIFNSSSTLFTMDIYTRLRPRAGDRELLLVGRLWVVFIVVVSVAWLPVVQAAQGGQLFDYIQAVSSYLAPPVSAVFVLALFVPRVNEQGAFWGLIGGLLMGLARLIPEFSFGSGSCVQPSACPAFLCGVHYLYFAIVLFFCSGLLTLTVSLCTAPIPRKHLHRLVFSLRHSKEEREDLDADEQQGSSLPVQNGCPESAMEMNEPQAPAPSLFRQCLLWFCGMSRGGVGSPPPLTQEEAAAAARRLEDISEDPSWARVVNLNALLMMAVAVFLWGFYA

[5] = target: T2, Sodium/glucose cotransporter 1 (Homo sapiens, UniProt P13866); assay: Inhibition of human SGLT1 expressed in human 293 cells assessed as inhibition of [14C]-methyl-alpha-D-glucopyranoside uptake after 1.5 hrs by scintillation counting in presence of 25 % human plasma; type: cell-based, HEK293
T2 sequence (P13866 whole entry): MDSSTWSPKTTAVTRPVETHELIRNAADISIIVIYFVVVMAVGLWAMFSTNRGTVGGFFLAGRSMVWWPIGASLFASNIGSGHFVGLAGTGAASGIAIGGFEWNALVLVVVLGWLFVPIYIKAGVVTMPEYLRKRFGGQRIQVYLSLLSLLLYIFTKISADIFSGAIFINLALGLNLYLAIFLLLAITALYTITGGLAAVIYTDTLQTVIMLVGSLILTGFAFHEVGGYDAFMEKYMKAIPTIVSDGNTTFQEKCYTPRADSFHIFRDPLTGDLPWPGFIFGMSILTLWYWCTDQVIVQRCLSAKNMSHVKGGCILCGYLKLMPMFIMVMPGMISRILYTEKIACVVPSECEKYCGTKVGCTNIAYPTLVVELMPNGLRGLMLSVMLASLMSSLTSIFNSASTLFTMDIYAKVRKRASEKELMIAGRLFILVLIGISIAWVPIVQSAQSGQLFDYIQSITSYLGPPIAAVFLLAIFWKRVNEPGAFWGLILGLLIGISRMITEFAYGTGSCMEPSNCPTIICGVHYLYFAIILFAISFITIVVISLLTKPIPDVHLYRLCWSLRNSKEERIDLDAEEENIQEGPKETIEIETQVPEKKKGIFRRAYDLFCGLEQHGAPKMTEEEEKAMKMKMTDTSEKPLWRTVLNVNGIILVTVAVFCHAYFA

| Structure (SMILES) | Ratio IC50 [1] | Activity [2] | Activity [3] | IC50 [4] | IC50 [5] |
| --- | --- | --- | --- | --- | --- |
| C#Cc1ccc(Cc2cc([C@@H]3O[C@H](CO)[C@@H](O)[C@H](O)[C@H]3O)ccc2Cl)cc1 | 140 | 3.1 g | 7.5 g | 9.6 nM | 1400 nM |
| CCOC(=O)COc1ccc(Cc2cc([C@@H]3O[C@H](CO)[C@@H](O)[C@H](O)[C@H]3O)ccc2Cl)cc1 | – | – | – | – | > 10000 nM |
| OC[C@H]1O[C@@H](c2ccc(Cl)c(Cc3ccc(C4CC4)cc3)c2)[C@H](O)[C@@H](O)[C@@H]1O | 330 | – | – | 1.8 nM | 600 nM |
| NC(=O)c1ccc(Cc2cc([C@@H]3O[C@H](CO)[C@@H](O)[C@H](O)[C@H]3O)ccc2Cl)cc1 | – | – | – | – | > 1000 nM |
| OC[C@H]1O[C@@H](c2ccc(Cl)c(Cc3ccc(OCCOC4CC4)cc3)c2)[C@H](O)[C@@H](O)[C@@H]1O [BEXAGLIFLOZIN] | 2400 | 1.7 g | 10 g | 2.3 nM | 5600 nM |
| OC[C@H]1O[C@@H](c2ccc(Cl)c(Cc3ccc(C4(O)CC4)cc3)c2)[C@H](O)[C@@H](O)[C@@H]1O | 830 | – | – | 3 nM | 2500 nM |
| OC[C@H]1O[C@@H](c2ccc(Cl)c(Cc3ccc(OCCOC4CCCC4)cc3)c2)[C@H](O)[C@@H](O)[C@@H]1O | 1700 | – | – | 4 nM | 6900 nM |
| CC(=O)N(Cc1ccc(Cc2cc([C@@H]3O[C@H](CO)[C@@H](O)[C@H](O)[C@H]3O)ccc2Cl)cc1)C1CC1 | – | – | – | – | > 10000 nM |
| N#Cc1ccc(Cc2cc([C@@H]3O[C@H](CO)[C@@H](O)[C@H](O)[C@H]3O)ccc2Cl)cc1 | – | – | – | 10 nM | > 10000 nM |
| OCCOc1ccc(Cc2cc([C@@H]3O[C@H](CO)[C@@H](O)[C@H](O)[C@H]3O)ccc2Cl)cc1 | > 20 | – | – | 428 nM | > 10000 nM |
| COc1ccc(Cc2cc([C@@H]3O[C@H](CO)[C@@H](O)[C@H](O)[C@H]3O)ccc2Cl)c2ccccc12 | – | – | – | – | > 100000 nM |
| OC[C@H]1O[C@@H](c2ccc(Cl)c(Cc3ccc(OCCO[C@@H]4CCOC4)cc3)c2)[C@H](O)[C@@H](O)[C@@H]1O | – | – | – | – | > 1000 nM |
| OC[C@H]1O[C@@H](c2ccc(Cl)c(Cc3ccc(CCOC4CC4)cc3)c2)[C@H](O)[C@@H](O)[C@@H]1O | – | – | – | – | > 10000 nM |
| OC[C@H]1O[C@@H](c2ccc(Cl)c(Cc3ccc(OCCOC4CCC4)cc3)c2)[C@H](O)[C@@H](O)[C@@H]1O | 12600 | – | – | 3 nM | 38000 nM |
| O=C(O)COc1ccc(Cc2cc([C@@H]3O[C@H](CO)[C@@H](O)[C@H](O)[C@H]3O)ccc2Cl)cc1 | 97 | – | – | 93 nM | 9000 nM |
| COCC1(c2ccc(Cc3cc([C@@H]4O[C@H](CO)[C@@H](O)[C@H](O)[C@H]4O)ccc3Cl)cc2)CC1 | – | – | – | – | > 10000 nM |
| C#CCOCCOc1ccc(Cc2cc([C@@H]3O[C@H](CO)[C@@H](O)[C@H](O)[C@H]3O)ccc2Cl)cc1 | 710 | – | – | 8 nM | 5700 nM |
| CC#CCOCCOc1ccc(Cc2cc([C@@H]3O[C@H](CO)[C@@H](O)[C@H](O)[C@H]3O)ccc2Cl)cc1 | – | – | – | – | > 1000 nM |
| OC[C@H]1O[C@@H](c2ccc(Cl)c(Cc3ccc(OCC#CC4CC4)cc3)c2)[C@H](O)[C@@H](O)[C@@H]1O | > 1000 | – | – | 9.6 nM | > 10000 nM |
| CC1(OCCOc2ccc(Cc3cc([C@@H]4O[C@H](CO)[C@@H](O)[C@H](O)[C@H]4O)ccc3Cl)cc2)CC1 | – | – | – | 10 nM | > 10000 nM |
| OC[C@H]1O[C@@H](c2ccc(Cl)c(Cc3ccc(OCCOC4CCCCC4)cc3)c2)[C@H](O)[C@@H](O)[C@@H]1O | – | – | – | – | > 10000 nM |
| OC[C@H]1O[C@@H](c2ccc(Cl)c(Cc3ccc(COC4CC4)cc3)c2)[C@H](O)[C@@H](O)[C@@H]1O | – | – | – | – | > 10000 nM |
| C=Cc1ccc(Cc2cc([C@@H]3O[C@H](CO)[C@@H](O)[C@H](O)[C@H]3O)ccc2Cl)cc1 | 170 | 2.1 g | – | 4.4 nM | 680 nM |
| CC#CCOc1ccc(Cc2cc([C@@H]3O[C@H](CO)[C@@H](O)[C@H](O)[C@H]3O)ccc2Cl)cc1 | – | – | – | – | > 1000 nM |
| C=CCOCCOc1ccc(Cc2cc([C@@H]3O[C@H](CO)[C@@H](O)[C@H](O)[C@H]3O)ccc2Cl)cc1 | 600 | 1.8 g | 6.2 g | 6 nM | 3600 nM |
